# From article PMC10698726 (Molecular Pharmaceutics, 2023)
# Where two headings read alike, the source gives them in different places.
# Key:
# OCT3 = molecular target: T1, OCT3 (Homo sapiens, UniProt O75751); experiment: Inhibition of model substrate uptake in OCT3-overexpressing HEK293 cells; type: cell-based; conditions: for IC50: 2 μM ASP+ or ethambutol as model substrate
# T1 construct: expressed in transfected cells; host or cells: HEK293
# T1 sequence (O75751 1-556): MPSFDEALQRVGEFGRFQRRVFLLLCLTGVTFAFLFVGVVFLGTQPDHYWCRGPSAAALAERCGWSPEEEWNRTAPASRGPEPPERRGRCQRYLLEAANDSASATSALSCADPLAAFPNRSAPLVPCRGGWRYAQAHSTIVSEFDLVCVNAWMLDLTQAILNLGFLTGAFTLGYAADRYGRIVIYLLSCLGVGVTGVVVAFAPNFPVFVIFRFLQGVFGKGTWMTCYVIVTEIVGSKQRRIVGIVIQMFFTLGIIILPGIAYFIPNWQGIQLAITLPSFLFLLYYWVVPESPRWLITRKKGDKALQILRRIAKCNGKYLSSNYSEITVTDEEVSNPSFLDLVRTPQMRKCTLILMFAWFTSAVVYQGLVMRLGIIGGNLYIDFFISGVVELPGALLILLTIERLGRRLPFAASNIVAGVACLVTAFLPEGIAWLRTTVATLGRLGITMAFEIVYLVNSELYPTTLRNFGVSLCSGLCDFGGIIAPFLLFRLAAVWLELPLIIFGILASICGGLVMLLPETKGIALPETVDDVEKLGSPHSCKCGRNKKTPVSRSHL
# In short: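 IC50 values were fitted with a Hill equation from net uptake, calculated as uptake in overexpressing HEK293 cells minus empty-vector control uptake. Cells were exposed for 5 min to 2 μM model substrate alone, with 20 μM inhibitor, or with a concentration series. Uptake was quantified by ASP^+ fluorescence or LC–MS/MS after lysis in 80% acetonitrile.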
# OCT1 = molecular target: T2, OCT1 (Homo sapiens, UniProt O15245); experiment: Inhibition of model substrate uptake in OCT1-overexpressing HEK293 cells; type: cell-based; set-up: expressed in transfected cells; host or cells: HEK293; conditions: for IC50: 2 μM ASP+ or ethambutol as model substrate; for IC50 / inhibition at 5 min, 20 μM: 5 min; for inhibition at 5 min, 20 μM / selectivity ratio at 5 min: human, OCT1-overexpressing HEK293 cells; for inhibition at 5 min, 20 μM: OCT1, 20 μM inhibitor; for selectivity ratio at 5 min: pH 7.4, ratio of the IC50 values of both isomers, label = isomer named in the cell (as a rule the one with the higher IC50), read-out: Stereoselectivity (x-fold for the named isomer)
# T2 sequence (O15245 1-554): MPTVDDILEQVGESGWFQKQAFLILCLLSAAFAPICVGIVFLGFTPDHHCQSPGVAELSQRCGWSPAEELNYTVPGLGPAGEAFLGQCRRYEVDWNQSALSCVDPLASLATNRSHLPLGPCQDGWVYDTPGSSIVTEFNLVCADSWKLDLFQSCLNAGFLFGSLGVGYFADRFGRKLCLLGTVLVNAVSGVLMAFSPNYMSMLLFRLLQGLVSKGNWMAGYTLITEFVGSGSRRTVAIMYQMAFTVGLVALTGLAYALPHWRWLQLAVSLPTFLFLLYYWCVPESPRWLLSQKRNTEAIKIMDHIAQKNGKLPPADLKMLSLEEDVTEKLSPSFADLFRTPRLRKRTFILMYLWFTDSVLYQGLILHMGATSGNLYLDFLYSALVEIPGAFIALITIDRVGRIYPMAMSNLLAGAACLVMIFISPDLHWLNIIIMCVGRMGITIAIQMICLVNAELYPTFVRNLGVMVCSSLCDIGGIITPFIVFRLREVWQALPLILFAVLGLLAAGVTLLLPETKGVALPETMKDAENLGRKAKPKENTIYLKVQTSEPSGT
# Experimental: Koepsell and Gorbulev (University of Würzburg, Germany).
# Fluorescence quantification was performed in technical duplicates.
# [1] = HEK293, 5 min, read-out: (S,S)-Ethambutol inhibition [%], OCT3, 20 μM inhibitor, 2 μM (S,S)-ethambutol, 5 min
# [2] = HEK293, OCT3, 20 μM inhibitor, 2 μM ASP+, 5 min, read-out: ASP+ inhibition [%]
# [3] = pH 7.4, probe (S,S)-ethambutol (2 μM), (S,S)-Ethambutol inhibition [%], 2 μM (S,S)-ethambutol
# [4] = pH 7.4, probe ASP+ (2 μM), 2 μM ASP+, mean of three experiments, read-out: ASP+ inhibition [%]
# [5] = pH 7.4, probe sumatriptan (2 μM), 2 μM sumatriptan, read-out: Sumatriptan inhibition [%]
Compound,inhibition at 20 µM (OCT3; [1]),inhibition at 20 µM (OCT3; [2]),"IC50 (OCT3; IC50, OCT3, Table S5, 5 min)","Stereoselectivity (x-fold for the named isomer) (OCT3; OCT3, Table S5, ratio of the IC50 values of both isomers, label = isomer named in the cell (as a rule the one with the higher IC50))","(S)-Zolmitriptan inhibition [%] (OCT3; OCT3, 20 μM inhibitor, 2 μM (S)-zolmitriptan, 5 min)","IC50 (OCT1; IC50, OCT1, Table S5)","inhibition at 5 min, 20 μM (OCT1; [3])","inhibition at 5 min, 20 μM (OCT1; [4])","inhibition at 5 min, 20 μM (OCT1; [5])","selectivity ratio at 5 min (OCT1; OCT1, Table S5)","IC50 (OCT3; OCT3, Table S5, 5 min, read-out: IC50)","fold more potent in the inhibition of OCT3 than the respective counterpart (OCT3; OCT3, label = the more potent enantiomer)","inhibition at 20 µM (OCT3; HEK293, 5 min, read-out: (S)-Zolmitriptan inhibition [%], OCT3, 20 μM inhibitor, 2 μM (S)-zolmitriptan, 5 min)","IC50 (OCT1; OCT1, Table S5, read-out: IC50)"
CCN(CC)CC#CCOC(=O)[C@](O)(c1ccccc1)C1CCCCC1 [(R)-Oxybutynine],64.7%,31.3%,65 µM,1.6 fold,42.2%,171 µM,93.7%,49.1%,73%,1.2,–,–,–,–
CN(C)CCc1c[nH]c2ccc(C[C@H]3COC(=O)N3)cc12 [(S)-Zolmitriptan],55%,38.5%,–,–,–,–,26.9%,10%,44.5%,–,17.3 µM,25 fold,–,–
CCCN[C@H]1CCc2nc(N)sc2C1 [(S)-Pramipexole],30.2%,6.1%,–,–,–,–,34.9%,12.1%,35.6%,1.6,–,–,18.4%,32.2 µM
